Assay results: ChEMBL document CHEMBL1201862, “PubChem BioAssay data set” (2004)
Activity calls are given as the source filed them.

Assays:
[1] = target: T1, Acyl-homoserine lactone acylase PvdQ (Pseudomonas aeruginosa (strain LESB58), UniProt Q9I194); assay: P. aeruginosa PvdQ acylase inhibitors, dose response, biochemical, fluorescence, plate reader and imaging, cherry-picks (AID 493231)
T1 sequence (Q9I194 whole entry): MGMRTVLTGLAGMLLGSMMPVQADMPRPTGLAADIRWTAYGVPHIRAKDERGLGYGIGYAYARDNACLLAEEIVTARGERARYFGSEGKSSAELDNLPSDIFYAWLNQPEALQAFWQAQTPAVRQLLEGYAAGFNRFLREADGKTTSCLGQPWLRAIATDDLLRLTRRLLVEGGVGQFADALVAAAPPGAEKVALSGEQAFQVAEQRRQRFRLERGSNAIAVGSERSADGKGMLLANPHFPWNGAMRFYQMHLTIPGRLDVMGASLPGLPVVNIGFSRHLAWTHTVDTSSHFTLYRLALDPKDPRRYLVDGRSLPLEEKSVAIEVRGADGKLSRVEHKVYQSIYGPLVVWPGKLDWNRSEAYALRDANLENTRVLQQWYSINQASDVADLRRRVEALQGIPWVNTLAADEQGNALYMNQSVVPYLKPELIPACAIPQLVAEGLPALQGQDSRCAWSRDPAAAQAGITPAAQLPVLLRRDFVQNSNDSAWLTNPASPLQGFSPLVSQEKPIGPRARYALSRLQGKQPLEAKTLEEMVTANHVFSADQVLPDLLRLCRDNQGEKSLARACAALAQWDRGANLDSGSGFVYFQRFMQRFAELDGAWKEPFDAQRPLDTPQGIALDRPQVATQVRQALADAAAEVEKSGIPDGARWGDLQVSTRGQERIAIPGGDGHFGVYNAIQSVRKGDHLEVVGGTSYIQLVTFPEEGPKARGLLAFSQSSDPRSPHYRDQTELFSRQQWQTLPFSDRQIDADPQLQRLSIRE

[2] = off-target signal loss in HeLa-CEM21 co-culture – HeLa F-luc CTL cells, cherry-picked, counter-screen for HIV-1 Env fusion inhibitor project, dose response (AID 652040); assay type: functional, cell-based;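 further: potency for signal decrease marking cytotoxic or nonspecific inhibition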
[3] = ZM109 Env clade C HIV-1 fusion inhibitors, dose response, HeLa effector, CEM target cells, luciferase, cherry-pick (AID 652058); assay type: functional, cell-based
[4] = inhibitors of clade B AD8 Env fusion, dose response, cell-based, cherry-pick (AID 652062); assay type: functional;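 further: luciferase signal from cell-cell fusion driven by HIV-1 clade B AD8 Env; potency is for inhibitors of fusion seen as a drop in luminescence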
[5] = inhibitors of HIV Env-driven cell fusion, dose response, cherry-pick (AID 652057); assay type: functional, cell-based
[6] = CEM21 lymphoblast cell cytotoxicity, dose response, cytotoxicity control for viral fusion inhibitor project, CellTiter-Glo luminescence, cherry-picked (AID 652042); assay type: functional, cell-based;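 further: potency for signal decrease meaning cytotoxicity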
[7] = target: T2, Estrogen receptor (Homo sapiens, UniProt P03372);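 further: potency for inhibiting coactivator peptide recruitment to the receptor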
T2 sequence (P03372 whole entry): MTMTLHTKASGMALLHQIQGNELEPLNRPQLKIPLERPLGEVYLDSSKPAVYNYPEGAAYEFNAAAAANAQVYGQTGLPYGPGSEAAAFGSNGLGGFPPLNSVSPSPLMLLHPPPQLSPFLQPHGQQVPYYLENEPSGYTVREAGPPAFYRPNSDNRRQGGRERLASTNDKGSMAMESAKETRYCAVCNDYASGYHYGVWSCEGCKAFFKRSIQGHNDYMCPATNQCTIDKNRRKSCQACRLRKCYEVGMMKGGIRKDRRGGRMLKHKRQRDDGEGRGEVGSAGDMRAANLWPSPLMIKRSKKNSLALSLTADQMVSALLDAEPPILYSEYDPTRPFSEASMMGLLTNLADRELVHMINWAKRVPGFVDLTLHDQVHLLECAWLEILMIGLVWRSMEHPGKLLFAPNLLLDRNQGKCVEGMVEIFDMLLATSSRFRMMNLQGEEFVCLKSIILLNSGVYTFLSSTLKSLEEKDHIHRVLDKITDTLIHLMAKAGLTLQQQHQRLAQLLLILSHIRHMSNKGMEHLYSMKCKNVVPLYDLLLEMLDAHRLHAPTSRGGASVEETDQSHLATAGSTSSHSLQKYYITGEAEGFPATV

[8] = target: T3, Protein Tat (Human immunodeficiency virus type 1 group M subtype B (isolate HXB2)(HIV-1), UniProt P04608); assay type: functional;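 further: tat binding to TAR RNA read out by fluorescence polarization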
T3 sequence (P04608 whole entry): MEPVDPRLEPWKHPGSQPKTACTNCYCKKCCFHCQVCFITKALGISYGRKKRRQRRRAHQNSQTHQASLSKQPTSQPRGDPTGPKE

[9] = target: T4, Estrogen receptor beta (Homo sapiens, UniProt Q92731);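 further: recombinant ER-beta bound to coactivator SRC1 peptide in presence of estradiol agonist; inhibitors block coactivator peptide binding and lower the FRET signal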
[10] = target: T4, Estrogen receptor beta; assay: ERβ–SRC-3 coactivator interaction inhibitors, confirmation, orthogonal assay, biochemical, ELISA, streptavidin-HRP readout (AID 1060)
[11] = Luminescence-based counterscreen assay for KLF5 inhibitors: dose response cell-based high throughput screening assay to identify cytotoxic compounds using the IEC-6 intestinal epithelial cell line. [Related pubchem assays: 1700 (Primary screen.), 1834 (Confirmation screen.), 1858 (Summary AID.), 1905 (Counterscreen.)]; assay type: functional
[12] = HEK293T cytotoxicity, dose response, cytotoxicity control for miR-122 modulator project, cell-based, inhibitor set, cherry-pick, set 2 (AID 720697); assay type: functional
[13] = HEK293T cytotoxicity, dose response, cytotoxicity control for miR-122 modulator project, cell-based, activator set, cherry-pick (AID 720690); assay type: functional;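 further: HEK293T human cells scored for general mammalian cytotoxicity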
[14] = HepG2 cell cytotoxicity, dose response, cytotoxicity control, cherry-picked samples (AID 1159577); assay type: functional, cell-based
[15] = P. falciparum Dd2 growth inhibitors, dose response, SYBR Green, cherry-picked samples (AID 1159567); assay type: functional, cell-based
[16] = target: T5, Calpain-2 catalytic subunit (Sus scrofa, UniProt P43367); assay: pig calpain II inhibitor potency, dose response, biochemical, fluorogenic peptide substrate (AID 1420); assay type: functional
T5 sequence (P43367 whole entry): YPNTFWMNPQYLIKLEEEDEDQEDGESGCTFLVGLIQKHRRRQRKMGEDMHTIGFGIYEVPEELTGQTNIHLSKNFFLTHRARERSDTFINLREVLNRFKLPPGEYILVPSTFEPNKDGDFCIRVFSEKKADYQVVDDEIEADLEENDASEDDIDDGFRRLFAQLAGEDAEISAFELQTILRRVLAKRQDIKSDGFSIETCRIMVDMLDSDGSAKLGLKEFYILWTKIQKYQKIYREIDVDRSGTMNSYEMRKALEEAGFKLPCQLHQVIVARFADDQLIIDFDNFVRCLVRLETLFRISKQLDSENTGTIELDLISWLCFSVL

[17] = test system: INS1; assay: beta cell apoptosis inhibitors, cytokine rescue, dose response, luminescence, retest (AID 449756); assay type: functional, cell-based; settings: Rattus norvegicus;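 further: cell death triggered by IL-1 beta plus TNF-alpha plus IFN-gamma mixture; protective hits raise ATP signal compared with cytokine alone wells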
[18] = target: T6, Carboxy-terminal domain RNA polymerase II polypeptide A small phosphatase 1 (Homo sapiens, UniProt Q9GZU7); assay: inhibitors of CTDSP1, concentration-response testing, biochemical assay, absorbance-based, actives from ultra-high-throughput screening (AID 540297); assay type: functional
T6 sequence (Q9GZU7 whole entry): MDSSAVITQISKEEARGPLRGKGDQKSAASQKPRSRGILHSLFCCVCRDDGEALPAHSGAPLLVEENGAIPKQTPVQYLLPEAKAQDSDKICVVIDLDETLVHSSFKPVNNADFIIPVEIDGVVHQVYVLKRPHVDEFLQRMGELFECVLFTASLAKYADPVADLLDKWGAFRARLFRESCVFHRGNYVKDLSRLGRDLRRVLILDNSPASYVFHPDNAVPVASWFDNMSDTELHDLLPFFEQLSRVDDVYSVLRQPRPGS

T4 sequence (Q92731 whole entry): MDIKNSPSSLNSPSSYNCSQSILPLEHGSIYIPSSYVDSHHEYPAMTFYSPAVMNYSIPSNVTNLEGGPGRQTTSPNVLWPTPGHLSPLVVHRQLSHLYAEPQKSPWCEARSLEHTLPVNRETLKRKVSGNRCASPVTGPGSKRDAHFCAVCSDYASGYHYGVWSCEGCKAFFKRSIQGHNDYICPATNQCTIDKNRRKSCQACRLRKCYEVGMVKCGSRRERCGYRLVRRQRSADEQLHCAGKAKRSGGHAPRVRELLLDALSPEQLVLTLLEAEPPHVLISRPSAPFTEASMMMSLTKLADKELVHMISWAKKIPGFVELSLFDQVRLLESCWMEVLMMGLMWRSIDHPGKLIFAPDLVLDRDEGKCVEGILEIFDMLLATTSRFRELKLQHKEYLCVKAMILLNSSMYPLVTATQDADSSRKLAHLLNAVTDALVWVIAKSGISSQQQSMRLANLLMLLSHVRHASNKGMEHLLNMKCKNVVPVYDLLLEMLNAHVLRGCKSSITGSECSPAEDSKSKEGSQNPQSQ

Question: With `Cn1cccc1C(C#N)c1ccccc1C#N` (stereo not drawn) as the compound, how does the AC50 [1] read?
Answer: The AC50 was 7.71 µM (active).

Question: Which AC50 [2] does the source give for `CC[C@@]12C(=O)N(c3cccc(Cl)c3)C(=O)N1[C@H](c1ccc(Br)cc1)[C@@H]1C(=O)N(C(C)(C)C)C(=O)[C@@H]12` here?
Answer: The AC50 was < 0.26 µM (active).

Question: And the AC50 [3]?
Answer: The AC50 was < 0.26 µM (active).

Question: And the AC50 [4]?
Answer: Its AC50 is 0.342 µM (active).

Question: And the AC50 [5]?
Answer: The AC50 was < 0.26 µM (active).

Question: What about the AC50 [6] of the same compound?
Answer: The AC50 was 65.5 µM (active).

Question: Which AC50 [1] does the source give for `COC(=O)c1ccc(OC(=O)c2cccs2)cc1` here?
Answer: The AC50 was 7.15 µM (active).

Question: Which IC50 [7] does the source give for `CC(=O)NC(C)C(=O)OCC(=O)Nc1ccc(Br)cc1` (stereo not drawn) here?
Answer: The IC50 was > 50 µM (not active).

Question: With `CCCCN1C(=O)NC(=O)C2(Cc3ccccc3N3CCOCC32)C1=O` (stereo not drawn) as the compound, how does the IC50 [8] read?
Answer: The IC50 was > 100 µM (active).

Question: Which IC50 [9] does the source give for `O=S(=O)(NCc1csc(-c2cccnc2)n1)c1ccc(Cl)s1` here?
Answer: The IC50 was 11.8 µM (active).

Question: What about the IC50 [7] of the same compound?
Answer: Its IC50 is 13.6 µM (active).

Question: And the IC50 [10]?
Answer: Its IC50 is 99.4 µM (not active).

Question: With `CCC(=O)c1ccc(OC(=O)c2cccs2)cc1` as the compound, how does the AC50 [1] read?
Answer: The AC50 was > 100 µM (inactive).

Question: Which AC50 [1] does the source give for `COc1ccc(N2CCN(C(=O)c3ccc(Br)o3)CC2)cc1` here?
Answer: Its AC50 is 7.33 µM (active).

Question: For `CN(C)c1ccc(/C=N/Nc2cccc(C(=O)O)c2)cc1`, which IC50 [11] is on record?
Answer: Its IC50 is > 39.8 µM (not active).

Question: With `CN(C[C@H]1N[C@@H](CO)[C@H]1c1ccc(-c2ccccc2)cc1)C(=O)C1CCC1` as the compound, how does the AC50 [12] read?
Answer: The AC50 was 10.2 µM (active).

Question: Which AC50 [13] does the source give for `CC(C)CC#Cc1ccc([C@H]2[C@@H](CO)N3CCCCN(S(=O)(=O)Cc4ccccc4)C[C@H]23)cc1` here?
Answer: The AC50 was 15 µM (active).

Question: And the AC50 [14]?
Answer: Its AC50 is 8.87 µM (active).

Question: And the AC50 [15]?
Answer: The AC50 was 5.43 µM (active).

Question: Which results are given for `CC(=N)/C(C#N)=C(/O)CSc1nnc(COc2ccccc2Cl)o1`?
Answer: IC50 [9]: 8.99 µM (active); IC50 [7]: 37.2 µM (not active); IC50 [16]: < 0.4 µM (not active); IC50 [10]: 5.64 µM (not active)

Question: Which results are given for `O=C(C[C@H]1C[C@H]2c3cc(NS(=O)(=O)c4ccc(F)cc4)ccc3O[C@H]2[C@H](CO)O1)NCc1ccc(Cl)cc1`?
Answer: AC50 [14]: > 39 µM (inactive); AC50 [15]: 6.82 µM (active)

Question: Which results are given for `O=C(Nc1cccnc1)c1cccs1`?
Answer: AC50 [17]: 6.6 µM (active); IC50 [11]: 38.4 µM (not active); IC50 [16]: > 50 µM (not active)

Question: With `CCOC(=O)C1=C(O)/C(=C\c2ccc(CNC(=O)C(=O)Nc3ccccc3)o2)N=C1C` as the compound, how does the IC50 [9] read?
Answer: The IC50 was < 1.56 µM (active).

Question: What about the IC50 [7] of the same compound?
Answer: Its IC50 is 5.73 µM (active).

Question: What about the IC50 [18] of the same compound?
Answer: The IC50 was 8.55 µM (active).

Question: And the IC50 [8]?
Answer: Its IC50 is 5.9 µM (inconclusive).

Question: What about the IC50 [10] of the same compound?
Answer: The IC50 was 1.95 µM (not active).
